Experimental data: patent US10077261B2, “Imidazolin-5-one derivative useful as FASN inhibitors for the treatment of cancer” (Janssen Pharmaceutica NV, priority 2012, dated 2018)
pIC50: −log10 of the molar value.

Tests used:
[1] = tested on: PC-3M-Luc-C6 prostate cells; experiment: In vitro PC-3M-Luc-C6 prostate cell proliferation assay in lipid reduced medium; assay type: cell-based; settings: 96 h, read-out: pIC50 PC-3M-Luc-C6 prostate cell (converted)
[2] = biological target: T1, hFASN enzyme (full length) (Homo sapiens, UniProt P49327); experiment: Fatty Acid Synthase (FASN) inhibition scintillation proximity assay; assay type: biochemical; settings: for inhibition at 10 µM: read-out: Human FASN % inhibition @ 10 μM, 10 μM test compound; for IC50: read-out: Human FASN pIC50 (converted)
T1 construct: 10 μL hFASN enzyme (full length, 300 ng, purified in house); made in house
T1 sequence (P49327 whole entry): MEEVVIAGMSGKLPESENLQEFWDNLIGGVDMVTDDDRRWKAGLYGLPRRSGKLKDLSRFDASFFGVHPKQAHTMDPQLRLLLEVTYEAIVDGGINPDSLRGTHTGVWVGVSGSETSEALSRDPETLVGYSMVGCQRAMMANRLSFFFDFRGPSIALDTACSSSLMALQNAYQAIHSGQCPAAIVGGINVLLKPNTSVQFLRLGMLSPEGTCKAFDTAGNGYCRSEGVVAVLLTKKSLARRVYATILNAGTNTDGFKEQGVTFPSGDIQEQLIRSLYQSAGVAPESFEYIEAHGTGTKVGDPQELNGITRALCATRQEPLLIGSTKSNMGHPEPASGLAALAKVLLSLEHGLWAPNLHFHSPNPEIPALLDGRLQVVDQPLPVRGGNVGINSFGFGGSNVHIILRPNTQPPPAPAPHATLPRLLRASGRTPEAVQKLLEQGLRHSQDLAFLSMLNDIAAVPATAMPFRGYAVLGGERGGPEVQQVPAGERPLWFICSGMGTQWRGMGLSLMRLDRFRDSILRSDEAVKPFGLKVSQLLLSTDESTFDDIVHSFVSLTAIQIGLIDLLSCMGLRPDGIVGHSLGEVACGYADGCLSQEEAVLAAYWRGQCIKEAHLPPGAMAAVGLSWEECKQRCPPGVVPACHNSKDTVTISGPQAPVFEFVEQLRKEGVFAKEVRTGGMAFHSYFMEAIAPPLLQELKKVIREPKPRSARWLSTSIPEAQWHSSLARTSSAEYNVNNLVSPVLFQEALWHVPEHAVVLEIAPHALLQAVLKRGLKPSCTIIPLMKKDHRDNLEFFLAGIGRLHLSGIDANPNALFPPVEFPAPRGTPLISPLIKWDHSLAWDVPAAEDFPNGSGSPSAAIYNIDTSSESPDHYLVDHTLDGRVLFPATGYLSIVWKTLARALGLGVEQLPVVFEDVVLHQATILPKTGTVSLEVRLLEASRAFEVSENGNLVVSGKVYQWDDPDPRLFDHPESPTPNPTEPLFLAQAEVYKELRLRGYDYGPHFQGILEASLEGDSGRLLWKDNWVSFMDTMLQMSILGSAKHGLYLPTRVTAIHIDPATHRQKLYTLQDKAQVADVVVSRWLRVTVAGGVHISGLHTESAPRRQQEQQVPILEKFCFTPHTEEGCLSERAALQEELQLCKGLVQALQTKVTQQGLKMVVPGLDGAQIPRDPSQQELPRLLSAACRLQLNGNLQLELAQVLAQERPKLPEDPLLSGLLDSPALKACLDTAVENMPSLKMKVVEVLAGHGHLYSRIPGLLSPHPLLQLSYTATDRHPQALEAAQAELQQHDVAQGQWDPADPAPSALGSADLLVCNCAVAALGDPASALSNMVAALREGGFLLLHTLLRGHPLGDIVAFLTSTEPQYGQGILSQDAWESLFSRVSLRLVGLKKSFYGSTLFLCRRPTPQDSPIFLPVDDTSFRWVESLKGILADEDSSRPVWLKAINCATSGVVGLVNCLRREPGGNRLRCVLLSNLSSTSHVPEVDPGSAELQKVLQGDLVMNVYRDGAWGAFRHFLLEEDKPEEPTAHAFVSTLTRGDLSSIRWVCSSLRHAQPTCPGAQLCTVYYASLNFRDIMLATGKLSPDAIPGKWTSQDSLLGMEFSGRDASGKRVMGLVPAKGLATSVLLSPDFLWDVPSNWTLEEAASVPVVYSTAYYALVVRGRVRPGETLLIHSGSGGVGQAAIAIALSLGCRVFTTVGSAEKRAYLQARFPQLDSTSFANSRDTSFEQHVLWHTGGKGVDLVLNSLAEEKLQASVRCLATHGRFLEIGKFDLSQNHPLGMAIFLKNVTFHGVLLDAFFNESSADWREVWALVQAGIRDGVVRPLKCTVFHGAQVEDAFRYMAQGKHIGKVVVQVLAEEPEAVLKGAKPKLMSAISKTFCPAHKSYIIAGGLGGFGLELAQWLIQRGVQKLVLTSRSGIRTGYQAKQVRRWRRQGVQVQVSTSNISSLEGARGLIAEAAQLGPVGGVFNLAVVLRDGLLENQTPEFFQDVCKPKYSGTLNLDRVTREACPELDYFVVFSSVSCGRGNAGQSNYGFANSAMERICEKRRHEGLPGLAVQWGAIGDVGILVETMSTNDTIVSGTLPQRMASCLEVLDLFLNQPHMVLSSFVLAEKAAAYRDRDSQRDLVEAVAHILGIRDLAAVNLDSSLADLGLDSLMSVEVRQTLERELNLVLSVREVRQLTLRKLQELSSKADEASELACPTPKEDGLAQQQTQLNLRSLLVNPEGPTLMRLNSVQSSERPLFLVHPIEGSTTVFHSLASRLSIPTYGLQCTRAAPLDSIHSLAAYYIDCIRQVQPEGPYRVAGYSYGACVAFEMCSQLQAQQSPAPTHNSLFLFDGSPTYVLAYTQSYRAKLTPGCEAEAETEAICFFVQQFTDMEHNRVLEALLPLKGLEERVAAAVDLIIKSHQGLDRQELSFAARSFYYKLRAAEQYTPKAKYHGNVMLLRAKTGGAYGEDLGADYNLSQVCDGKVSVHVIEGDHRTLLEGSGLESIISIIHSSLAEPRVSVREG
How it was run: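 Full-length in-house purified enzyme (300 ng) was tested in 100 mM KH2PO4 pH 7.5, 1 mM DTT with ³H-acetyl-CoA and malonyl-CoA as substrates; compounds ranged 0.01–30 μM. Reactions were stopped with streptavidin imaging beads, read by LEADseeker at 610 nm, and fitted to a 4-parameter logistic curve.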

[3] = biological target: Fatty Acid Synthase Keto-reductase Domain (FASN KR) (Homo sapiens, UniProt P49327); experiment: Fatty Acid Synthase keto-reductase domain (FASN KR) inhibition, NADPH oxidation at 340 nm
Sequence of Fatty Acid Synthase Keto-reductase Domain (FASN KR) (P49327 whole entry, the tested form may be a part): as the sequence (P49327 whole entry) above
Experimental: After 20 minutes incubation at room temperature the plate was measured again (T2).
The decrease in absorbance was calculated as (Absorbance before incubation T1)−(Absorbance following incubation T2).
A plot of Controlmin versus test compound concentration was fitted to a 4-parameter logistic curve using a non-linear least squares regression method.

A2780 ovarian cells [4] = experiment: A2780 ovarian cell proliferation assay in lipid reduced medium, without palmitate (MTT); assay type: cell-based; settings: Homo sapiens, A2780, 96 h; read-out: pIC50 A2780 Ovarian Cell, Without Palmitate (converted)
[5] = tested on: LNCaP-Vancouver prostate cells; experiment: In vitro LNCaP Vancouver prostate cell proliferation assay in lipid reduced medium; assay type: cell-based; settings: read-out: pIC50 LNCaP_Vancouver prostate cell (converted)
A2780 ovarian cells [6] = experiment: A2780 ovarian cell proliferation assay in lipid reduced medium, with palmitate (MTT); assay type: cell-based; settings: Homo sapiens, A2780, 96 h; read-out: pIC50 A2780 Ovarian Cell, With Palmitate (converted)
How it was run: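 Seeded cells were switched next day to lipid-reduced serum, exposed to compound and 25 μM palmitate complexed with fatty-acid-free BSA, and incubated 96 h. Proliferation was then determined by MTT absorbance at 544 nm, with a best-fit curve of signal against concentration.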

IC50 [1] [nM]	inhibition at 10 µM [2] [%]	IC50 [2] [nM]	pIC50 [3]	IC50 (A2780 ovarian cells [4]) [nM]	IC50 [5] [nM]	IC50 (A2780 ovarian cells [6]) [nM]	Compound
26.9	95	38	7.13	25.1	158	5250	N#Cc1ccc2cc(-c3ccc(C4=NC5(CC5)C(=O)N4CC4CN(C(=O)C5(F)CC5)C4)c(F)c3)ccc2c1 [compound 225, 6-(3-fluoro-4-(6-((1-(1-fluorocyclopropanecarbonyl)azetidin-3-yl)methyl)-7-oxo-4,6-diazaspiro[2.4]hept-4-en-5-yl)phenyl)-2-naphthonitrile]
~5.89	98	23.4	7.62	2.34	21.9	> 10000	N#Cc1ccc2cc(-c3ccc(C4=NC5(CC5)C(=O)N4CC4CN(C(=O)C5CCO5)C4)c(F)c3)ccc2c1 (stereo not drawn) [compound 226, 6-(3-fluoro-4-(6-((1-(oxetane-2-carbonyl)azetidin-3-yl)methyl)-7-oxo-4,6-diazaspiro[2..4]hept-4-en-5-yl)phenyl)-2-naphthonitrile]
55	99	42.7	6.82	13.2	355	> 10000	Cn1cc2ccc(-c3ccc(C4=NC5(CC5)C(=O)N4CC4CN(C(=O)C5CC5)C4)c(F)c3)cc2n1 [compound 227, 6-((1-(cyclopropanecarbonyl)azetidin-3-yl)methyl)-5-(2-fluoro-4-(2-methyl-2H-indazol-6-yl)phenyl)-4,6-diazaspiro[2.4]hept-4-en-7-one]
~1620	108	100	6.55	2510	2190	> 6170	Cc1cc(C2=NC3(CC3)C(=O)N2C[C@@H]2CCN(C(=O)C3CC3)C2)ccc1-c1ccc2sc(C)c(C)c2c1 [compound 231, (R)-6-((1-(cyclopropanecarbonyl)pyrrolidin-3-yl)methyl)-5-(4-(2,3-dimethylbenzo[b]thiophen-5-yl)-3-methylphenyl)-4,6-diazaspiro[2.4]hept-4-em-7-one]
575	110	50.1	7.03	912	1700	> 10000	O=C(C1CC1)N1CC[C@@H](CN2C(=O)C3(CC3)N=C2c2ccc(-c3ccc4sccc4c3)c(F)c2)C1 [compound 233, (R)-5-(4-(benzo[b]thiophen-5-yl)-3-fluorophenyl)-6-((1-(cyclopropanecarbonyl)pyrrolidin-3-yl)methyl)-4,6-diazaspiro[2.4]hept-4-en-7-one]
23.4	108	20.9	7.29	~28.8	245	> 10000	O=C(C1CC1)N1CC[C@@H](CN2C(=O)C3(CC3)N=C2c2ccc(-c3ccc4[nH]ccc4c3)c(F)c2)C1 [compound 234, (R)-6-((1-(cyclopropanecarbonyl)pyrrolidin-3-yl)methyl)-5-(3-fluoro-4-(1H-indol-5-yl)phenyl)-4,6-diazaspiro[2.4]hept-4-en-7-one]
51.3	98	34.7	7.02	~89.1	646	> 10000	O=C(C1CC1)N1CC[C@@H](CN2C(=O)C3(CC3)N=C2c2ccc(-c3ccc4cc[nH]c4c3)c(F)c2)C1 [compound 236, (R)-6-((1-(cyclopropanecarbonyl)pyrrolidin-3-yl)methyl)-5-(3-fluoro-4-(1H-indol-6-yl)phenyl)-4,6-diazaspiro[2.4]hept-4-en-7-one]
~74.1	100	79.4	6.92	35.5	631	> 10000	O=C(C1CC1)N1CC[C@@H](CN2C(=O)C3(CC3)N=C2c2ccc(-c3cccc4[nH]ncc34)c(F)c2)C1 [compound 237, (R)-6-((1-(cyclopropanecarbonyl)pyrrolidin-3-yl)methyl)-5-(3-fluoro-4-(1H-indazol-4-yl)phenyl)-4,6-diazaspiro[2.4]hept-4-en-7-one]
70.8	98	43.7	6.98	42.7	245	> 10000	Cc1cc(C2=NC3(CC3)C(=O)N2C[C@@H]2CCN(C(=O)C3CC3)C2)ccc1-c1ccc2[nH]ccc2c1 [compound 238, (R)-5-(4-(1H-indol-5-yl)-3-methylphenyl)-6-((1-(cyclopropanecarbonyl)pyrrolidin-3-yl)methyl)-4,6-diazaspiro[2.4]hept-4-en-7-one]
~166	101	12.3	7.58	200	537	> 6170	O=C(C1CC1)N1CC[C@@H](CN2C(=O)C3(CC3)N=C2c2ccc(-c3ccc4occc4c3)cc2F)C1 [compound 240, (R)-5-(4-(benzofuran-5-yl)-2-fluorophenyl)-6-((1-(cyclopropanecarbonyl)pyrrolidin-3-yl)methyl)-4,6-diazaspiro[2.4]hept-4-en-7-one]
~56.2	100	21.9	7.54	~75.9	166	> 10000	O=C(C1CC1)N1CC[C@@H](CN2C(=O)C3(CC3)N=C2c2ccc(-c3ccc4sccc4c3)cc2F)C1 [compound 241, (R)-5-(4-(benzo[b]thiophen-5-yl)-2-fluorophenyl)-6-((1-(cyclopropanecarbonyl)pyrrolidin-3-yl)methyl)-4,6-diazaspiro[2.4]hept-4-en-7-one]
~646	103	19.1	7.45	~724	~1580	> 10000	Cc1cc2cc(-c3ccc(C4=NC5(CC5)C(=O)N4C[C@@H]4CCN(C(=O)C5CC5)C4)c(F)c3)ccc2o1 [compound 242, (R)-6-((1-(cyclopropanecarbonyl)pyrrolidin-3-yl)methyl)-5-(2-fluoro-4-(2-methylbenzofuran-5-yl)phenyl)-4,6-diazaspiro[2.4]hept-4-en-7-one]
~240	104	22.4	7.38	646	832	> 6170	Cc1cc2cc(-c3ccc(C4=NC5(CC5)C(=O)N4C[C@@H]4CCN(C(=O)C5CC5)C4)c(F)c3)ccc2s1 [compound 243, (R)-6-((1-(cyclopropanecarbonyl)pyrrolidin-3-yl)methyl)-5-(2-fluoro-4-(2-methylbenzo[b]thiophen-5-yl)phenyl)-4,6-diazaspiro[2.4]hept-4-en-7-one]
~1410	101	56.2	7.25	~2240	1820	> 10000	Cc1oc2ccc(-c3ccc(C4=NC5(CC5)C(=O)N4C[C@@H]4CCN(C(=O)C5CC5)C4)c(F)c3)cc2c1C [compound 244, (R)-6-((1-(cyclopropanecarbonyl)pyrrolidin-3-yl)methyl)-5-(4-(2,3-dimethylbenzofuran-5-yl)-2-fluorophenyl)-4,6-diazaspiro[2.4]hept-4-en-7-one]
~646	98	32.4	7.43	1550	~1700	> 10000	Cc1sc2ccc(-c3ccc(C4=NC5(CC5)C(=O)N4C[C@@H]4CCN(C(=O)C5CC5)C4)c(F)c3)cc2c1C [compound 245]
4.79	101	17	7.42	~5.01	15.5	> 10000	O=C(C1CC1)N1CC[C@@H](CN2C(=O)C3(CC3)N=C2c2ccc(-c3ccc4[nH]ccc4c3)cc2F)C1 [compound 246, (R)-6-((1-(cyclopropanecarbonyl)pyrrolidin-3-yl)methyl)-5-(2-fluoro-4-(1H-indol-5-yl)phenyl)-4,6-diazaspiro[2.4]hept-4-en-7-one]
7.24	103	16.2	7.75	5.01	23.4	> 10000	O=C(C1CC1)N1CC[C@@H](CN2C(=O)C3(CC3)N=C2c2ccc(-c3ccc4cc[nH]c4c3)cc2F)C1 [compound 247, (R)-6-((1-(cyclopropanecarbonyl)pyrrolidin-3-yl)methyl)-5-(2-fluoro-4-(1H-indol-6-yl)phenyl)-4,6-diazaspiro[2.4]hept-4-en-7-one]
4.17	102	17	7.71	~5.5	16.6	> 10000	O=C(C1CC1)N1CC[C@@H](CN2C(=O)C3(CC3)N=C2c2ccc(-c3ccc4cccnc4c3)cc2F)C1 [compound 249, (R)-6-((1-(cyclopropanecarbonyl)pyrrolidin-3-yl)methyl)-5-(2-fluoro-4-(quinolin-7-yl)phenyl)-4,6-diazaspiro[2.4]hept-4-en-7-one]
